Our source for the remaining activity values is US20240246942A1, “KINASE INHIBITORS FOR THE TREATMENT OF NEURODEGENERATIVE DISEASES” (priority 2020, published 2024).

Common to all, as to experiment: biochemical
Assay [1] concerns the target T1, panel of 374 wild-type kinases (Homo sapiens, UniProt P52333).
T1 construct: purchased Reaction Biology Corporation
T1 sequence (P52333 1-1124): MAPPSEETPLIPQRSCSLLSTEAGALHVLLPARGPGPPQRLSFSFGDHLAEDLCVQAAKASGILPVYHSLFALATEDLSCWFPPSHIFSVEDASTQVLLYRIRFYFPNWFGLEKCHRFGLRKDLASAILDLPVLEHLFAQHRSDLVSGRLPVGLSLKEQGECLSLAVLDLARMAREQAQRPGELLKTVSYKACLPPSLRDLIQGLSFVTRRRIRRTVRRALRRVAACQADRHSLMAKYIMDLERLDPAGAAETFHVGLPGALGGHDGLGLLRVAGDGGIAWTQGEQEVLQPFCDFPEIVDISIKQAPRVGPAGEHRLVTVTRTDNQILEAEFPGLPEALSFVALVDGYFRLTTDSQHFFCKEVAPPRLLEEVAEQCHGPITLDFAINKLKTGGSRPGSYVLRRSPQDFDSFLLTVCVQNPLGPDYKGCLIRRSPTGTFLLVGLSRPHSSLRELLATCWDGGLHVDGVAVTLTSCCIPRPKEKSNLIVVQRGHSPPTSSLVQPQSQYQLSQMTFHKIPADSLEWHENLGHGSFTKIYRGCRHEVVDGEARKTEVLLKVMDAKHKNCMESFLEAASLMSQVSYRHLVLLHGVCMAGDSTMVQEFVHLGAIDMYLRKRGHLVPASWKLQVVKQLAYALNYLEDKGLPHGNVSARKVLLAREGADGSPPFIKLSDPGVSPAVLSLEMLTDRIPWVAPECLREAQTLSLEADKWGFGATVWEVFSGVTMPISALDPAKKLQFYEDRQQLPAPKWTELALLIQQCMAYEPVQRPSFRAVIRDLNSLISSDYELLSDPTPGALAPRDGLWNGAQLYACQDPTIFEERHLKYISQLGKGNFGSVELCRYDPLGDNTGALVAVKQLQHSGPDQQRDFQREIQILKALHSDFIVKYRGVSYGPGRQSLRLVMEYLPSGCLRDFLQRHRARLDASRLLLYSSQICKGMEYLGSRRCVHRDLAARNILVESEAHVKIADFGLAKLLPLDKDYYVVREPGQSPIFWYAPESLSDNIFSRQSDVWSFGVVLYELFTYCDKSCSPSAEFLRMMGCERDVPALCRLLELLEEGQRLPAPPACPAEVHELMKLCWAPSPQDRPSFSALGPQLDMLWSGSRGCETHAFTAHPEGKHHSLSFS
To be noted: read-out: % Enzyme Activity (relative to DMSO controls), JAK3.

Assay [2] addresses T2, panel of 374 wild-type kinases (Homo sapiens, UniProt P30530).
T2 construct: purchased Reaction Biology Corporation
T2 sequence (P30530 26-894): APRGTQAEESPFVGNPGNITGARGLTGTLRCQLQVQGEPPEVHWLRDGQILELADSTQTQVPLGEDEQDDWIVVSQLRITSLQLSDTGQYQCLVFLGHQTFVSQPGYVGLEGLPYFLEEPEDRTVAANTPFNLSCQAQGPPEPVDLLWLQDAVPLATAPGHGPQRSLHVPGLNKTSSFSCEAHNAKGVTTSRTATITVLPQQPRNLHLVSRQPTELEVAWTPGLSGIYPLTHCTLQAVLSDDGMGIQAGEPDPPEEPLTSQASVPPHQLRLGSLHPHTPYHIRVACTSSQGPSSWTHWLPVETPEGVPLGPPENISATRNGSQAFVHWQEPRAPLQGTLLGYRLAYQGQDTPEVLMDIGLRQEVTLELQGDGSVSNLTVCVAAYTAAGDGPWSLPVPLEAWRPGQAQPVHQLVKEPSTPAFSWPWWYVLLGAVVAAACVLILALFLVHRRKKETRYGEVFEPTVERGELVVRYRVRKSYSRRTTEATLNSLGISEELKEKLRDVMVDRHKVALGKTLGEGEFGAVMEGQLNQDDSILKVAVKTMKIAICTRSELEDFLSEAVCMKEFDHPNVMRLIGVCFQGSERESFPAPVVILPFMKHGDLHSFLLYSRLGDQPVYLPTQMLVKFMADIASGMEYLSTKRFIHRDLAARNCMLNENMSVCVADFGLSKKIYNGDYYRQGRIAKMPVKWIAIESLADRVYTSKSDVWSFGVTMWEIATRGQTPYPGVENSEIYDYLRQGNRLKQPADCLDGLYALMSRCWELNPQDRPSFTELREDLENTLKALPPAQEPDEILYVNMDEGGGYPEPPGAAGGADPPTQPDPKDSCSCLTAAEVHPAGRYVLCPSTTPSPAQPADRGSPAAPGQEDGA
To be noted: read-out: % Enzyme Activity (relative to DMSO controls), AXL.

In assay [3] the target is T3, panel of 374 wild-type kinases (Homo sapiens, UniProt P08631).
T3 construct: purchased Reaction Biology Corporation
The following applies: read-out: % Enzyme Activity (relative to DMSO controls), HCK.

The target in assay [4] is T4, panel of 374 wild-type kinases (Homo sapiens, UniProt O95747).
T4 construct: purchased Reaction Biology Corporation
The following applies: read-out: % Enzyme Activity (relative to DMSO controls), OSR1/OXSR1.

T3 sequence (P08631 whole entry): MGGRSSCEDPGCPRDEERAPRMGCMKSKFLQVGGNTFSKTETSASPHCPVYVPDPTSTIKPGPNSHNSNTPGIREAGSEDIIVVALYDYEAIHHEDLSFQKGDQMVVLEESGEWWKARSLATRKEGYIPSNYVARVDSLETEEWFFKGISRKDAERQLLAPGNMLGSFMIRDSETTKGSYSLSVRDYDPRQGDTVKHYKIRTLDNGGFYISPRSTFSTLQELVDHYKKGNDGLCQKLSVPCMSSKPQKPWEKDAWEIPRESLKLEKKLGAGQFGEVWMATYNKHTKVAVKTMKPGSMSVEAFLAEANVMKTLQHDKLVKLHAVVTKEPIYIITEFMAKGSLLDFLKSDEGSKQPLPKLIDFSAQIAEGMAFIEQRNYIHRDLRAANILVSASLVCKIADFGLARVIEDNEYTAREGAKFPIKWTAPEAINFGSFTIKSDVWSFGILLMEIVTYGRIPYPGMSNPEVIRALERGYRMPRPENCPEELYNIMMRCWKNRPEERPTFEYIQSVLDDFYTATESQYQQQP
T4 sequence (O95747 whole entry): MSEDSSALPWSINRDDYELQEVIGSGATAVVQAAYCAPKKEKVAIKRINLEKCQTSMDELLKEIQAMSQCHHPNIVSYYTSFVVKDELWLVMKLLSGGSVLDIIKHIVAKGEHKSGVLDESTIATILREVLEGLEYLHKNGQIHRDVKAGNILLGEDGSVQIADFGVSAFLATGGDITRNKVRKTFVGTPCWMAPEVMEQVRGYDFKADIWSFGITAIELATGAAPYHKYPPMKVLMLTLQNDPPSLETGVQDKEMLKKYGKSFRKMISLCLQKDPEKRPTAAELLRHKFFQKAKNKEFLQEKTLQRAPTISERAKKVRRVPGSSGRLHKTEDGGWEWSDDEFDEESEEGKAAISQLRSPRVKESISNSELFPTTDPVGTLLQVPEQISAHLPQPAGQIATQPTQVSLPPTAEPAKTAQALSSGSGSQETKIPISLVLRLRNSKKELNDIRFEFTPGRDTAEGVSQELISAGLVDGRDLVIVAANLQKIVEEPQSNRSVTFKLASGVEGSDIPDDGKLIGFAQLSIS

Take `Cc1sc(C(=O)NC2COC2)cc1-n1cc(NC(=O)Nc2c(F)cccc2Cl)cn1` [Compound 27, 4-(4-(3-(2-chloro-6-fluorophenyl)ureido)-1H-pyrazol-1-yl)-5-methyl-N-(oxetan-3-yl)thiophene-2-carboxamide]: the remaining activity at 10 µM is 96.7% in assay [1] (10 uM), 86.6% in assay [2] (10 uM), 95% in assay [3] (10 uM) and 127% in assay [4] (10 uM).
In the case of `O=C(Nc1cnn(-c2csc(C(=O)NC3COC3)c2)c1)Nc1c(F)cccc1Cl` [Compound 25, 4-(4-(3-(2-chloro-6-fluorophenyl)ureido)-1H-pyrazol-1-yl)-N-(oxetan-3-yl)thiophene-2-carboxamide], the remaining activity at 5 µM in assay [1] came out at 98.7%; in assay [2], 73%; in assay [3] it was 91.3%; in assay [4], 96.5%.
Take `O=C(Nc1cnn(-c2csc(C(=O)NC3COC3)c2)c1)Nc1ccccc1Cl` [Compound 17, 4-(4-(3-(2-chlorophenyl)ureido)-1H-pyrazol-1-yl)-N-(oxetan-3-yl)thiophene-2-carboxamide]: the remaining activity at 5 µM came to 102% in assay [1], 96.7% in assay [2], 94% in assay [3] and 92.6% in assay [4].
